Data on 70 compounds can be found in patent publication US20020026053A1, “Novel 3-(substituted) -2- indolinones compounds and use thereof as inhibitors of protein kinase activity” (priority 1997, published 2002).

The assay has as its system FLK-1 receptor. The assay can be described thus: FLK-1 Assay (cellular/catalytic ELISA, VEGF-stimulated phosphotyrosine). Also noted: concentration or dose not given beside the values. The conditions noted are these: protocol P.110. It is filed as cell-based. The method, boiled down: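 NIH3T3 C7#3 cells engineered to express Flk-1 were serum-starved overnight (0.1% FBS), then exposed to compound for 2 h at 37 °C (final dilution 1:200, 0.5% DMSO) before VEGF stimulation. Lysates captured on anti-FLK-1 antiserum plates; phosphotyrosine detected by UB40 antibody/POD-ABTS ELISA versus untreated controls.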

For `Cc1c(Br)cc(Br)c2c1C(=Cc1cccc(F)c1)C(=O)N2` [10736/H07], the “Flk Kinase % Inhibition (P.110)” value worked out at 17.8%.
The value for `Cc1c(Br)cc(Br)c2c1C(=Cc1ccccc1F)C(=O)N2` [10736/H08] was 15.8%.
In the case of `CCc1ccc(C=C2C(=O)Nc3c(Br)cc(Br)c(C)c32)cc1` [10736/H09] it was 13.2%.
In the case of `COc1cccc(C=C2C(=O)Nc3c(Br)cc(Br)c(C)c32)c1` [10736/H10], the “Flk Kinase % Inhibition (P.110)” value amounted to 2.1%.
As for `Cc1c(Br)cc(Br)c2c1C(=Cc1ccccc1Cl)C(=O)N2` [10736/H11], the “Flk Kinase % Inhibition (P.110)” value is on record as 17.6%.
The value for `CCOc1ccc(C=C2C(=O)Nc3c(Br)cc(Br)cc32)cc1` [10737/A02] was −5.5%; that for `Cc1ccc(C=C2C(=O)Nc3c(Br)cc(Br)cc32)c(C)c1` [10737/A03] was −1.2%.
The value for `O=C1Nc2c(Br)cc(Br)cc2C1=Cc1cc(F)ccc1F` [10737/A04] was −0.4%.
In the case of `O=C1Nc2c(Br)cc(Br)cc2C1=Cc1cccc(F)c1F` [10737/A05] it was −2.0%.
Regarding `COc1ccc(C=C2C(=O)Nc3c(Br)cc(Br)cc32)cc1F` [10737/A06], the “Flk Kinase % Inhibition (P.110)” value is recorded as −20.3%.
Turning to `Cc1ccc(C)c(C=C2C(=O)Nc3c(Br)cc(Br)cc32)c1` [10737/A07], the “Flk Kinase % Inhibition (P.110)” value came to 3.4%.
In the case of `O=C1Nc2c(Br)cc(Br)cc2C1=Cc1ccc2ccccc2c1` [10737/A08] it was 4.9%.
In the case of `O=C1Nc2c(Br)cc(Br)cc2C1=Cc1ccc(Oc2ccccc2)cc1` [10737/A09] it was −10.1%; in that of `CC(C)(C)c1ccc(Oc2cccc(C=C3C(=O)Nc4c(Br)cc(Br)cc43)c2)cc1` [10737/A10], 6.0%.
The value for `O=C1Nc2c(Br)cc(Br)cc2C1=Cc1cccc(Oc2cccc(C(F)(F)F)c2)c1` [10737/A11] was 6.2%; that for `CCOc1ccc(C=C2C(=O)Nc3ccc(I)cc32)cc1` [10737/B02] was −3.0%.
As to `Cc1ccc(C=C2C(=O)Nc3ccc(I)cc32)c(C)c1` [10737/B03], the “Flk Kinase % Inhibition (P.110)” value turned out to be 7.0%.
In the case of `O=C1Nc2ccc(I)cc2C1=Cc1cc(F)ccc1F` [10737/B04] it was −8.2%; in that of `O=C1Nc2ccc(I)cc2C1=Cc1cccc(F)c1F` [10737/B05], −4.6%.
The value for `COc1ccc(C=C2C(=O)Nc3ccc(I)cc32)cc1F` [10737/B06] was 3.6%; that for `Cc1ccc(C)c(C=C2C(=O)Nc3ccc(I)cc32)c1` [10737/B07] was 10.5%; that for `O=C1Nc2ccc(I)cc2C1=Cc1ccc2ccccc2c1` [10737/B08] was 12.2%.
For the compound `O=C1Nc2ccc(I)cc2C1=Cc1ccc(Oc2ccccc2)cc1` [10737/B09], the “Flk Kinase % Inhibition (P.110)” value is 17.5%.
In the case of `CC(C)(C)c1ccc(Oc2cccc(C=C3C(=O)Nc4ccc(I)cc43)c2)cc1` [10737/B10] it was 17.1%.
Take `O=C1Nc2ccc(I)cc2C1=Cc1cccc(Oc2cccc(C(F)(F)F)c2)c1` [10737/B11]: the “Flk Kinase % Inhibition (P.110)” value was 12.8%.
In the case of `CCOc1ccc(C=C2C(=O)Nc3ccc(Br)c(C)c32)cc1` [10737/C02] it was −2.9%.
The value for `Cc1ccc(C=C2C(=O)Nc3ccc(Br)c(C)c32)c(C)c1` [10737/C03] was 10.1%; that for `Cc1c(Br)ccc2c1C(=Cc1cc(F)ccc1F)C(=O)N2` [10737/C04] was −20.1%.
For the compound `Cc1c(Br)ccc2c1C(=Cc1cccc(F)c1F)C(=O)N2` [10737/C05], the “Flk Kinase % Inhibition (P.110)” value is listed as −3.3%.
The value for `COc1ccc(C=C2C(=O)Nc3ccc(Br)c(C)c32)cc1F` [10737/C06] was 8.7%; that for `Cc1ccc(C)c(C=C2C(=O)Nc3ccc(Br)c(C)c32)c1` [10737/C07] was 1.6%; that for `Cc1c(Br)ccc2c1C(=Cc1ccc3ccccc3c1)C(=O)N2` [10737/C08] was 8.9%.
The value for `Cc1c(Br)ccc2c1C(=Cc1ccc(Oc3ccccc3)cc1)C(=O)N2` [10737/C09] was 8.4%.
In the case of `Cc1c(Br)ccc2c1C(=Cc1cccc(Oc3ccc(C(C)(C)C)cc3)c1)C(=O)N2` [10737/C10] it was 16.0%.
In the case of `Cc1c(Br)ccc2c1C(=Cc1cccc(Oc3cccc(C(F)(F)F)c3)c1)C(=O)N2` [10737/C11], the “Flk Kinase % Inhibition (P.110)” value was determined as 13.3%.
The value for `CCOc1ccc(C=C2C(=O)Nc3ccc(S(=O)(=O)NC)cc32)cc1` [10737/D02] was 10.6%; that for `CNS(=O)(=O)c1ccc2c(c1)C(=Cc1ccc(C)cc1C)C(=O)N2` [10737/D03] was 12.1%; that for `CNS(=O)(=O)c1ccc2c(c1)C(=Cc1cc(F)ccc1F)C(=O)N2` [10737/D04] was 12.0%.
In the case of `CNS(=O)(=O)c1ccc2c(c1)C(=Cc1cccc(F)c1F)C(=O)N2` [10737/D05] it was 8.9%.
The value for `CNS(=O)(=O)c1ccc2c(c1)C(=Cc1ccc(OC)c(F)c1)C(=O)N2` [10737/D06] was 13.0%; that for `CNS(=O)(=O)c1ccc2c(c1)C(=Cc1cc(C)ccc1C)C(=O)N2` [10737/D07] was 12.9%; that for `CNS(=O)(=O)c1ccc2c(c1)C(=Cc1ccc3ccccc3c1)C(=O)N2` [10737/D08] was 15.3%.
`CNS(=O)(=O)c1ccc2c(c1)C(=Cc1ccc(Oc3ccccc3)cc1)C(=O)N2` [10737/D09]: the “Flk Kinase % Inhibition (P.110)” value was 13.9%.
Turning to `CNS(=O)(=O)c1ccc2c(c1)C(=Cc1cccc(Oc3ccc(C(C)(C)C)cc3)c1)C(=O)N2` [10737/D10], the “Flk Kinase % Inhibition (P.110)” value was 23.2%.
The value for `CNS(=O)(=O)c1ccc2c(c1)C(=Cc1cccc(Oc3cccc(C(F)(F)F)c3)c1)C(=O)N2` [10737/D11] was 17.2%; that for `CCOc1ccc(C=C2C(=O)Nc3ccc(S(=O)(=O)Nc4ccc(C(F)(F)F)cc4)cc32)cc1` [10737/E02] was 14.3%.
In the case of `Cc1ccc(C=C2C(=O)Nc3ccc(S(=O)(=O)Nc4ccc(C(F)(F)F)cc4)cc32)c(C)c1` [10737/E03] it was 17.9%; in that of `O=C1Nc2ccc(S(=O)(=O)Nc3ccc(C(F)(F)F)cc3)cc2C1=Cc1cc(F)ccc1F` [10737/E04], 16.1%.
In the case of `O=C1Nc2ccc(S(=O)(=O)Nc3ccc(C(F)(F)F)cc3)cc2C1=Cc1cccc(F)c1F` [10737/E05] it was 14.9%; in that of `COc1ccc(C=C2C(=O)Nc3ccc(S(=O)(=O)Nc4ccc(C(F)(F)F)cc4)cc32)cc1F` [10737/E06], 11.1%; in that of `Cc1ccc(C)c(C=C2C(=O)Nc3ccc(S(=O)(=O)Nc4ccc(C(F)(F)F)cc4)cc32)c1` [10737/E07], 20.1%.
`O=C1Nc2ccc(S(=O)(=O)Nc3ccc(C(F)(F)F)cc3)cc2C1=Cc1ccc2ccccc2c1` [10737/E08]: the “Flk Kinase % Inhibition (P.110)” value was found to be 21.3%.
In the case of `O=C1Nc2ccc(S(=O)(=O)Nc3ccc(C(F)(F)F)cc3)cc2C1=Cc1ccc(Oc2ccccc2)cc1` [10737/E09] it was 11.9%.
The value for `CC(C)(C)c1ccc(Oc2cccc(C=C3C(=O)Nc4ccc(S(=O)(=O)Nc5ccc(C(F)(F)F)cc5)cc43)c2)cc1` [10737/E10] was 18.9%; that for `O=C1Nc2ccc(S(=O)(=O)Nc3ccc(C(F)(F)F)cc3)cc2C1=Cc1cccc(Oc2cccc(C(F)(F)F)c2)c1` [10737/E11] was 18.3%; that for `CCOc1ccc(C=C2C(=O)Nc3ccc(S(=O)(=O)N4CCOCC4)cc32)cc1` [10737/F02] was 15.1%.
The value for `Cc1ccc(C=C2C(=O)Nc3ccc(S(=O)(=O)N4CCOCC4)cc32)c(C)c1` [10737/F03] was 16.3%; that for `O=C1Nc2ccc(S(=O)(=O)N3CCOCC3)cc2C1=Cc1cc(F)ccc1F` [10737/F04] was 12.2%; that for `O=C1Nc2ccc(S(=O)(=O)N3CCOCC3)cc2C1=Cc1cccc(F)c1F` [10737/F05] was 18.4%.
For the compound `COc1ccc(C=C2C(=O)Nc3ccc(S(=O)(=O)N4CCOCC4)cc32)cc1F` [10737/F06], the “Flk Kinase % Inhibition (P.110)” value is 12.3%.
With `Cc1ccc(C)c(C=C2C(=O)Nc3ccc(S(=O)(=O)N4CCOCC4)cc32)c1` [10737/F07], the “Flk Kinase % Inhibition (P.110)” value is 19.1%.
In the case of `O=C1Nc2ccc(S(=O)(=O)N3CCOCC3)cc2C1=Cc1ccc2ccccc2c1` [10737/F08] it was 20.7%; in that of `O=C1Nc2ccc(S(=O)(=O)N3CCOCC3)cc2C1=Cc1ccc(Oc2ccccc2)cc1` [10737/F09], 15.4%.
The value for `CC(C)(C)c1ccc(Oc2cccc(C=C3C(=O)Nc4ccc(S(=O)(=O)N5CCOCC5)cc43)c2)cc1` [10737/F10] was 26.1%; that for `O=C1Nc2ccc(S(=O)(=O)N3CCOCC3)cc2C1=Cc1cccc(Oc2cccc(C(F)(F)F)c2)c1` [10737/F11] was 31.6%.
The value for `CCOc1ccc(C=C2C(=O)Nc3ccc(CCCl)cc32)cc1` [10737/G02] was 8.7%.
In the case of `Cc1ccc(C=C2C(=O)Nc3ccc(CCCl)cc32)c(C)c1` [10737/G03], the “Flk Kinase % Inhibition (P.110)” value is recorded as 13.6%.
As to `O=C1Nc2ccc(CCCl)cc2C1=Cc1cc(F)ccc1F` [10737/G04], the “Flk Kinase % Inhibition (P.110)” value was determined as 12.1%.
In the case of `O=C1Nc2ccc(CCCl)cc2C1=Cc1cccc(F)c1F` [10737/G05] it was 16.4%; in that of `COc1ccc(C=C2C(=O)Nc3ccc(CCCl)cc32)cc1F` [10737/G06], 12.8%.
